Laboratory results reported in patent US11053204B2, “Pyrimidinyloxy benzene derivatives as herbicides” (FMC Corporation, priority 2015, dated 2021).

Tests used:
Type in all cases: in vivo
[1] = test system: ragweed (common ragweed, Ambrosia elatior); test: Test A preemergence, visual injury rating; conditions: Ambrosia artemisiifolia, pre-emergence, 240 h, 0 to 100 scale (0 no effect, 100 complete control), read-out: Ragweed plant response rating
Outline: (§1)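 Compounds in non-phytotoxic solvent with surfactant applied as soil spray preemergence, or postemergence to plants 2-10 cm at one- to two-leaf stage, in loam/sand. After approximately 10 days in greenhouse, injury rated visually versus untreated controls, 0 (no effect) to 100 (complete control).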

[2] = test system: barnyardgrass (Echinochloa crus-galli); test: Test A preemergence, visual injury rating; conditions: Echinochloa crus-galli, pre-emergence, 240 h, 0 to 100 scale (0 no effect, 100 complete control), read-out: Barnyardgrass plant response rating
Outline: as §1

kochia (Kochia scoparia) [3] = test: Test A preemergence, visual injury rating; conditions: Bassia scoparia, pre-emergence, 240 h, 0 to 100 scale (0 no effect, 100 complete control), read-out: Kochia plant response rating
Outline: as §1

[4] = test system: pigweed (Amaranthus retroflexus); test: Test A preemergence, visual injury rating; conditions: Amaranthus retroflexus, pre-emergence, 240 h, 0 to 100 scale (0 no effect, 100 complete control), read-out: Pigweed plant response rating
Outline: as §1

[5] = test system: giant foxtail (Setaria faberii); test: Test A preemergence, visual injury rating; conditions: Setaria faberi, pre-emergence, 240 h, 0 to 100 scale (0 no effect, 100 complete control), read-out: Foxtail, Giant plant response rating
Outline: as §1

[6] = test system: Italian ryegrass (Lolium multiflorum); test: Test A preemergence, visual injury rating; conditions: Lolium multiflorum, pre-emergence, 240 h, 0 to 100 scale (0 no effect, 100 complete control), read-out: Ryegrass, Italian plant response rating
Outline: as §1

[7] = test system: galium (catchweed bedstraw, Galium aparine); test: Test A postemergence, visual injury rating; conditions: Galium, post-emergence, 240 h, 0 is no effect, 100 is complete control, read-out: Galium plant response rating (0 to 100 scale)
Outline: as §1

[8] = test system: ragweed (common ragweed, Ambrosia elatior); test: Test A postemergence, visual injury rating; conditions: Ambrosia artemisiifolia, post-emergence, 240 h, 0 is no effect, 100 is complete control, read-out: Ragweed plant response rating (0 to 100 scale)
Outline: as §1

[9] = test system: wheat (Triticum aestivum); test: Test A postemergence, visual injury rating; conditions: Triticum aestivum, post-emergence, 240 h, 0 is no effect, 100 is complete control, read-out: Wheat plant response rating (0 to 100 scale)
Outline: as §1

[10] = test system: blackgrass (Alopecurus myosuroides); test: Test A postemergence, visual injury rating; conditions: Alopecurus myosuroides, post-emergence, 240 h, 0 is no effect, 100 is complete control, read-out: Blackgrass plant response rating (0 to 100 scale)
Outline: as §1

[11] = test system: barnyardgrass (Echinochloa crus-galli); test: Test A postemergence, visual injury rating; conditions: Echinochloa crus-galli, post-emergence, 240 h, 0 is no effect, 100 is complete control, read-out: Barnyardgrass plant response rating (0 to 100 scale)
Outline: as §1

kochia (Kochia scoparia) [12] = test: Test A postemergence, visual injury rating; conditions: Bassia scoparia, post-emergence, 240 h, 0 is no effect, 100 is complete control, read-out: Kochia plant response rating (0 to 100 scale)
Outline: as §1

[13] = test system: pigweed (Amaranthus retroflexus); test: Test A postemergence, visual injury rating; conditions: Amaranthus retroflexus, post-emergence, 240 h, 0 is no effect, 100 is complete control, read-out: Pigweed plant response rating (0 to 100 scale)
Outline: as §1

[14] = test system: giant foxtail (Setaria faberii); test: Test A postemergence, visual injury rating; conditions: Setaria faberi, post-emergence, 240 h, 0 is no effect, 100 is complete control, read-out: Foxtail, Giant plant response rating (0 to 100 scale)
Outline: as §1

corn (Zea mays) = test: Test A postemergence, visual injury rating; conditions: Zea mays, post-emergence, 240 h, 0 is no effect, 100 is complete control, read-out: Corn plant response rating (0 to 100 scale)
Outline: as §1

[15] = test system: Italian ryegrass (Lolium multiflorum); test: Test A postemergence, visual injury rating; conditions: Lolium multiflorum, post-emergence, 240 h, 0 is no effect, 100 is complete control, read-out: Ryegrass, Italian plant response rating (0 to 100 scale)
Outline: as §1

[16] = test system: ragweed (common ragweed, Ambrosia elatior); test: Test C preemergence, plant response rating; conditions: Ambrosia artemisiifolia, pre-emergence, Preemergence
Outline: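 Visual injury score, 0 = no effect, 100 = complete control, assigned against untreated controls after 13 to 15 d in the greenhouse. Compounds were applied in a surfactant-containing non-phytotoxic solvent mix, preemergence to seeded loam/sand or silt loam soil, or postemergence to 1- to 4-leaf plants (2 to 18 cm).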

[17] = test system: sedge, umbrella (small-flower umbrella sedge, Cyperus difformis); test: Test B flooded paddy test, plant response rating; conditions: Cyperus difformis, 312 h; 250 g ai/ha; Flood; scale of 0 to 100 where 0 is no effect and 100 is complete control; 13 to 15 days
Outline: (§2)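 Pots were flooded to 3 cm above the soil surface at treatment, compound applied directly to the paddy water, and that depth held throughout. Plants were kept in a greenhouse for 13 to 15 days, then visually rated against untreated controls.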

[18] = test system: ducksalad (Heteranthera limosa); test: Test B flooded paddy test, plant response rating; conditions: Heteranthera limosa, 312 h; 250 g ai/ha; Flood; scale of 0 to 100 where 0 is no effect and 100 is complete control; 13 to 15 days
Outline: as §2

rice (Oryza sativa) = test: Test B flooded paddy test, plant response rating; conditions: Oryza sativa, 312 h; 250 g ai/ha; Flood; scale of 0 to 100 where 0 is no effect and 100 is complete control; 13 to 15 days
Outline: as §2

[19] = test system: barnyardgrass (Echinochloa crus-galli); test: Test B flooded paddy test, plant response rating; conditions: Echinochloa crus-galli, 312 h; 250 g ai/ha; Flood; scale of 0 to 100 where 0 is no effect and 100 is complete control; 13 to 15 days
Outline: as §2

C=CCCOC(=O)c1c(Br)cccc1Oc1ncc(Cl)cn1 [Compound 21, 3-buten-1-yl 2-bromo-6-[(5-chloro-2-pyrimidinyl)oxy]benzoate]
pest or weed control at 125 g/ha ([1]; 125 g ai/ha): 0%
pest or weed control at 500 g/ha ([1]; 500 g ai/ha): 0%
pest or weed control at 125 g/ha ([2]; 125 g ai/ha): 100%
pest or weed control at 500 g/ha ([2]; 500 g ai/ha): 100%
pest or weed control at 125 g/ha (kochia (Kochia scoparia) [3]; 125 g ai/ha): 40%
pest or weed control at 500 g/ha (kochia (Kochia scoparia) [3]; 500 g ai/ha): 100%
pest or weed control at 125 g/ha ([4]; 125 g ai/ha): 100%
pest or weed control at 500 g/ha ([4]; 500 g ai/ha): 100%
pest or weed control at 125 g/ha ([5]; 125 g ai/ha): 100%
pest or weed control at 500 g/ha ([5]; 500 g ai/ha): 100%
pest or weed control at 125 g/ha ([6]; 125 g ai/ha): 30%
pest or weed control at 500 g/ha ([6]; 500 g ai/ha): 90%
pest or weed control at 125 g/ha ([7]; 125 g ai/ha): 80%
pest or weed control at 500 g/ha ([7]; 500 g ai/ha): 90%
pest or weed control at 125 g/ha ([8]; 125 g ai/ha): 0%
pest or weed control at 500 g/ha ([8]; 500 g ai/ha): 40%
plant injury at 125 g/ha ([9]; 125 g ai/ha): 0%
plant injury at 500 g/ha ([9]; 500 g ai/ha): 40%
pest or weed control at 125 g/ha ([10]; 125 g ai/ha): 60%
pest or weed control at 500 g/ha ([10]; 500 g ai/ha): 80%
pest or weed control at 125 g/ha ([11]; 125 g ai/ha): 70%
pest or weed control at 500 g/ha ([11]; 500 g ai/ha): 100%
pest or weed control at 125 g/ha (kochia (Kochia scoparia) [12]; 125 g ai/ha): 90%
pest or weed control at 500 g/ha (kochia (Kochia scoparia) [12]; 500 g ai/ha): 100%
pest or weed control at 125 g/ha ([13]; 125 g ai/ha): 80%
pest or weed control at 500 g/ha ([13]; 500 g ai/ha): 100%
pest or weed control at 125 g/ha ([14]; 125 g ai/ha): 70%
pest or weed control at 500 g/ha ([14]; 500 g ai/ha): 100%
plant injury at 125 g/ha (corn (Zea mays); 125 g ai/ha): 30%
plant injury at 500 g/ha (corn (Zea mays); 500 g ai/ha): 60%
pest or weed control at 125 g/ha ([15]; 125 g ai/ha): 0%
pest or weed control at 500 g/ha ([15]; 500 g ai/ha): 90%
pest or weed control at 125 g/ha ([16]; 125 g ai/ha, scale of 0 to 100): 0%
pest or weed control at 16 g/ha ([16]; 16 g ai/ha, scale 0 to 100): 0%
pest or weed control at 31 g/ha ([16]; 31 g ai/ha, scale 0 to 100): 0%
pest or weed control at 62 g/ha ([16]; 62 g ai/ha, scale 0 to 100): 0%
pest or weed control at 250 g/ha [17]: 100%
pest or weed control at 250 g/ha [18]: 70%
plant injury at 250 g/ha (rice (Oryza sativa)): 0%
pest or weed control at 250 g/ha [19]: 30%
